Experimental findings from patent US9963480B2, “Nucleoside phosphoramidate compound and use thereof” (priority 2013, dated 2018) are described below.

For orientation: pEC50 means the EC50 on a negative log10 scale, so that one unit is a factor of ten.

Molecules are shown by their SMILES. pEC50: −log10 of the molar value.

The experiment relates to HCV 1b replicon. The experiment in a line: Antiviral activity assay in HCV replicon system (Huh7 1b cells, luciferase reporter). It is filed as cell-based. The settings on record: Hepatitis C virus, Huh-7; Huh7 1b cells with HCV 1b replicon, Bright-Glo luciferase, 72 h; read-out: EC50. The text has this:
The cell line Huh7 1b, which was provided by WuXi AppTec Co., Ltd. in Shanghai, contained an HCV 1b replicon with a stable Luciferase (Luc) reporter. It was constructed by cloning HCV nonstructural protein gene, neo (G418 resistance) and luciferase reporter gene into the pBR vector through gene recombination technology. Then the vector carrying the HCV replicon was transfected into Huh7 cells, and the transfected Huh7 cells were screened by G418 resistance. The HCV replicon was stably replicated, and the related protein and luciferase were stably expressed in Huh7 cells. The cells model was used for in-vitro screen of anti-HCV compounds. The anti-HCV activity of the compounds was measured by detecting the level of luciferase expression. See Lohmann V, et al. 1999. Replication of subgenomic hepatitis C virus RNAs in a hepatoma cell line. Science. 285(5424):110-113.
The control drug used in this experimental example was the compound of Example 25 in WO 2008/121634 (PCT/US2008/058183), i.e. (S)-2-{[(2R,3R,4R,5R)-5-(2,4-dioxo-3,4-dihydro-2H-pyrimidin-1-yl)-4-fluoro-3-hydr oxy-4-methyl-tetrahydro-furan-2-ylmethoxy]-phenoxy-phosphorylamino}-propanoic acid isopropyl ester. This compound was prepared according to the method described in J. Org. chem, 2011, 76, 8311-8319, and identified by H-NMR and mass spectrometry.
• 2.1 compound preparation: adding each of the compounds listed in Table 2 to 96-well plates using a POD™ 810 Automation Platform (LabCyte Corporation, USA), with 10 μM of each of the compounds as a starting concentration and in duplicate; serially diluting each of the compounds in 3-fold fashion and formulating 10 concentrations, with the final concentration of DMSO being 0.5%; • 2.2 cells preparation: seeding the Huh71b cells into 96-well plates respectively with a volume of 125 μl and 8×10^3 cells/well, and incubating in a 37° C., 5% CO2 incubator for 72 h; • 2.3 detection of cell activity: adding 30 μl per cell of the CellTiter-Fluor™ Reagent, incubating in a 37° C., 5% CO2 incubator for 1 h, measuring the fluorescence signal values with a fluorometer, and using the obtained data for calculation of cytotoxicities of the compounds; • 2.4 Bright-Glo detection: adding 100 μl per well of the Bright-Glo™ Luciferase Substrate, using a chemiluminescence detection system EnVision™ (PerkinElmer, USA) to detect the fluorescence signal values within 5 minutes, and using the obtained data for calculation of potencies of the compounds. • 2.5 data processing: converting the obtained data to a percentage of cell viability (Viability %) using the following formula:
[formula] • CPD: fluorescence signal value of the well added with the compound • ZPE (Zero percent effect): fluorescence signal value of the control well with zero percent effect. • Processing the raw data to calculate a percentage of inhibition (Inhibition %) using the following formula:
[formula] • CPD: fluorescence signal value of the well added with the compound; • HPE (Hundred percent effect): fluorescence signal value of the control well with hundred percent effect; • ZPE (Zero percent effect): fluorescence signal value of the control well with zero percent effect.
The inhibition percentage was processed by the GraphPad Prism software to obtain the corresponding curves and EC50 values.
For orientation: In antiviral work, replicon cells carry a viral genome segment that copies itself.
On to `Cc1ccc(-c2ccc(OP(=O)(N[C@@H](C)C(=O)OC(C)C)OC[C@H]3O[C@@H](n4ccc(=O)[nH]c4=O)[C@](C)(F)[C@@H]3O)cc2)cc1F` (stereo partly shown) [Example 40], for which the pEC50 is 7.25. Turning to `Cc1cc(-c2ccc(OP(=O)(N[C@@H](C)C(=O)OC(C)C)OC[C@H]3O[C@@H](n4ccc(=O)[nH]c4=O)[C@](C)(F)[C@@H]3O)cc2)ccc1F` (stereo partly drawn) [Example 41, (2S)-2-((((4′-fluoro-3′-methyl-[1,1′-biphenyl]-4-yl)oxy)(((2R,3R,4R,5R)-5-(2,4-dioxo-3,4-dihydropyrimidin-1(2H)-yl)-4-fluoro-3-hydroxy-4-methyltetrahydrofuran-2-yl)methoxy)phosphoryl)amino)propanoic Acid Isopropyl Ester], the pEC50 was 7.30.

In the case of `Cc1ccc(-c2ccc(OP(=O)(N[C@@H](C)C(=O)OC(C)C)OC[C@H]3O[C@@H](n4ccc(=O)[nH]c4=O)[C@](C)(F)[C@@H]3O)cc2)cc1` (stereo partly drawn) [Example 42, (2S)-2-((((4′-methyl-[1,1′-biphenyl]-4-yl)oxy)(((2R,3R,4R,5R)-5-(2,4-dioxo-3,4-dihydropyrimidin-1(2H)-yl)-4-fluoro-3-hydroxy-4-methyltetrahydrofuran-2-yl)methoxy)phosphoryl)amino)propanoic Acid Isopropyl Ester], the pEC50 was 6.90. With `Cc1cc2c(F)c(O[P@@](=O)(N[C@@H](C)C(=O)OC(C)C)OC[C@H]3O[C@@H](n4ccc(=O)[nH]c4=O)[C@](C)(F)[C@@H]3O)ccc2n1C` [Example 43, (2S)-2-(((R)-((4-fluoro-1,2-dimethyl-1H-indol-5-yl)oxy)(((2R,3R,4R,5R)-5-(2,4-dioxo-3,4-dihydropyrimidin-1(2H)-yl)-4-fluoro-3-hydroxy-4-methyltetrahydrofuran-2-yl)methoxy)phosphoryl)amino)propanoic Acid Isopropyl Ester] the figure was 7.16.
